Reference: patent US11717508B2, “Compounds, compositions, and methods for inhibiting bacterial growth” (priority 2016, dated 2023)
Values joined by “and” are separate entries in the source; they are usually repeats but may differ in a detail not shown here. Equal values may be shown once. Read-outs that look alike come from different tables or passages of the source.

System: DosRST regulon
Type: cell-based

C[C@@H]1CC[C@H]2[C@@H](C)C(=O)O[C@@H]3O[C@]4(C)CC[C@@H]1[C@]32OO4 [HC101A, artemisinin, reference compound]
downregulation of tgs1 gene (transcriptional profiling) (CDC1551, 40 μM, 6 days): ~100 fold | Counts per million (CPM) WT_HC101A (gene MT0055): 35.17 CPM and 29.03 CPM | log2 Fold change (gene MT0055): −1.288 | Counts per million (CPM) WT_HC101A (gene MT0062 (Rv0056 rp11)): 104.6 CPM and 99.67 CPM | log2 Fold change (gene MT0062 (Rv0056 rp11)): −1.059 | log2 Fold change (gene MT0086 Rv0079): −1.314 | Counts per million (CPM) WT_HC101A (gene MT0105 (Rv0096 PPE)): 8.529 CPM and 7.796 CPM | log2 Fold change (gene MT0105 (Rv0096 PPE)): −1.583 | Counts per million (CPM) WT_HC101A (gene MT0106 (Rv0097)): 24.38 CPM and 21.53 CPM | log2 Fold change (gene MT0106 (Rv0097)): −1.646 | Counts per million (CPM) WT_HC101A (gene MT0107 (Rv0098)): 11.7 CPM and 9.891 CPM | log2 Fold change (gene MT0107 (Rv0098)): −1.652 | Counts per million (CPM) WT_HC101A (gene MT0108 (Rv0099 fadD10)): 39.35 CPM and 32.64 CPM | log2 Fold change (gene MT0108 (Rv0099 fadD10)): −1.057 | Counts per million (CPM) WT_HC101A (gene MT0117): 157.5 CPM and 202.6 CPM | log2 Fold change (gene MT0117): −1.008 | Counts per million (CPM) WT_HC101A (gene MT0122 (Rv0113 gmhA)): 36.48 CPM and 25.54 CPM | log2 Fold change (gene MT0122 (Rv0113 gmhA)): −1.031 | Counts per million (CPM) WT_HC101A (gene MT0124): 5.295 CPM and 3.898 CPM | log2 Fold change (gene MT0124): −1.954 | Counts per million (CPM) WT_HC101A (gene MT0175 (Rv0166 fadD5)): 67.07 CPM and 45.73 CPM | log2 Fold change (gene MT0175 (Rv0166 fadD5)): −1.959 | Counts per million (CPM) WT_HC101A (gene MT0176): 118.5 CPM and 96.7 CPM | log2 Fold change (gene MT0176): −1.284 | Counts per million (CPM) WT_HC101A (gene MT0178 (Rv0169 mcel)): 178.5 CPM and 133.6 CPM | log2 Fold change (gene MT0178 (Rv0169 mcel)): −1.664 | log2 Fold change (gene MT0179 (Rv0170)): −1.755 | log2 Fold change (gene MT0180 (Rv0171)): −1.645 | log2 Fold change (gene MT0181 (Rv0172)): −1.502 | log2 Fold change (gene MT0182 (Rv0173 IprK)): −1.638 | log2 Fold change (gene MT0183 (Rv0174)): 1.264 | log2 Fold change (gene MT0241 (Rv0231 fadE4)): −1.266 | log2 Fold change (gene MT0244 (Rv0233 nrdB)): −1.533 | log2 Fold change (gene MT0329 (Rv0315)): −1.589 | log2 Fold change (gene MT0417): −1.313 | log2 Fold change (gene MT0423 (Rv0410c pknG)): −1.948 | log2 Fold change (gene MT0424 (Rv0411c glnH)): −1.654 | log2 Fold change (gene MT0425 (Rv0412c)): −1.504 | log2 Fold change (gene MT0429 (Rv0416)): −1.414 | log2 Fold change (gene MT0434): −1.079 | log2 Fold change (gene MT0524): −1.085 | log2 Fold change (gene MT0595 Rv0569): −2.701 | log2 Fold change (gene MT0596 Rv0570 nrdZ): −4.516 | log2 Fold change (gene MT0597 Rv0571c): −2.001 | log2 Fold change (gene MT0599 Rv0572c): −3.648 | log2 Fold change (gene MT0600): −4.304 | log2 Fold change (gene MT0601 Rv0573c): −2.988 | log2 Fold change (gene MT0602 Rv0574c): −3.56 | log2 Fold change (gene MT0637 (Rv0608)): −1.073 | log2 Fold change (gene MT0735 (Rv0708 rplP)): −1.134 | log2 Fold change (gene MT0736 (Rv0709 rpmC)): −1.065 | log2 Fold change (gene MT0741): −1.181 | log2 Fold change (gene MT0741.1 (Rv0715 rplX)): −1.23 | log2 Fold change (gene MT0742.1 (Rv0717 rpsN)): −1.057 | log2 Fold change (gene MT0747 (Rv0722 rpmD)): −1.393 | log2 Fold change (gene MT0846 Rv0824c desA1): −1.662 | log2 Fold change (gene MT0877 (Rv0854)): −1.066 | log2 Fold change (gene MT0898): −3.3 | log2 Fold change (gene MT0908 (Rv0885)): −1.929 | log2 Fold change (gene MT0909 (Rv0886 fprB)): −1.498 | log2 Fold change (gene MT0911 (Rv0888)): −2.361 | log2 Fold change (gene MT1002 (Rv0974c accD2)): −1.787 | log2 Fold change (gene MT1019 (Rv0990c)): −1.168 | log2 Fold change (gene MT1020): −1.37 | log2 Fold change (gene MT1056 (Rv1037c)): −1.377 | log2 Fold change (gene MT1095 Rv1065): −1.172 | Counts per million (CPM) WT_HC101A (gene MT1823 (Rv1773c)): 189.6 CPM and 111.2 CPM | log2 Fold change (gene MT1823 (Rv1773c)): −1.79 | Counts per million (CPM) WT_HC101A (gene MT1840 (Rv1791 PE)): 169.4 CPM and 147.4 CPM | log2 Fold change (gene MT1840 (Rv1791 PE)): −1.118 | Counts per million (CPM) WT_HC101A (gene MT1850 (Rv1812c)): 69.36 CPM and 114.1 CPM | log2 Fold change (gene MT1850 (Rv1812c)): −1.173 | log2 Fold change (gene MT1851 Rv1813c): −4.29 | Counts per million (CPM) WT_HC101A (gene MT1882 (Rv1834)): 28.5 CPM and 25.48 CPM | log2 Fold change (gene MT1882 (Rv1834)): −1.56 | Counts per million (CPM) WT_HC101A (gene MT1932): 219.8 CPM and 285.7 CPM | log2 Fold change (gene MT1932): −1.182 | Counts per million (CPM) WT_HC101A (gene MT1942): 74.52 CPM and 69.7 CPM | log2 Fold change (gene MT1942): −1.048 | Counts per million (CPM) WT_HC101A (gene MT1943): 65.44 CPM and 61.15 CPM | log2 Fold change (gene MT1943): −1.048 | Counts per million (CPM) WT_HC101A (gene MT1955 (Rv1904)): 88.58 CPM and 104.4 CPM | log2 Fold change (gene MT1955 (Rv1904)): −1.006 | Counts per million (CPM) WT_HC101A (gene MT1959 (Rv1918c PPE)): 62.82 CPM and 65.51 CPM | log2 Fold change (gene MT1959 (Rv1918c PPE)): −1.121 | Counts per million (CPM) WT_HC101A (gene MT1986 (Rv1936)): 47.53 CPM and 27.87 CPM | log2 Fold change (gene MT1986 (Rv1936)): −2.373 | Counts per million (CPM) WT_HC101A (gene MT1987 (Rv1937)): 66.35 CPM and 34.04 CPM | log2 Fold change (gene MT1987 (Rv1937)): −2.295 | Counts per million (CPM) WT_HC101A (gene MT1988 (Rv1938 cphB)): 24.12 CPM and 13.5 CPM | log2 Fold change (gene MT1988 (Rv1938 cphB)): −2.344 | Counts per million (CPM) WT_HC101A (gene MT1989 (Rv1939)): 13.56 CPM and 7.389 CPM | log2 Fold change (gene MT1989 (Rv1939)): −2.045 | Counts per million (CPM) WT_HC101A (gene MT2007): 22.23 CPM and 14.6 CPM | log2 Fold change (gene MT2007): −1.243 | Counts per million (CPM) WT_HC101A (gene MT2016 (Rv1964)): 104.5 CPM and 57.78 CPM | log2 Fold change (gene MT2016 (Rv1964)): −1.754 | Counts per million (CPM) WT_HC101A (gene MT2017): 43.41 CPM and 25.54 CPM | log2 Fold change (gene MT2017): −2.544 | Counts per million (CPM) WT_HC101A (gene MT2018 (Rv1966 mce3)): 50.34 CPM and 26.88 CPM | log2 Fold change (gene MT2018 (Rv1966 mce3)): −2.558 | Counts per million (CPM) WT_HC101A (gene MT2019 (Rv1967)): 52.89 CPM and 27.87 CPM | log2 Fold change (gene MT2019 (Rv1967)): −2.496 | log2 Fold change (gene MT2020 Rv1968): −2.621 | Counts per million (CPM) WT_HC101A (gene MT2021 (Rv1969)): 23.73 CPM and 17.45 CPM | log2 Fold change (gene MT2021 (Rv1969)): −1.799 | Counts per million (CPM) WT_HC101A (gene MT2022 (Rv1970 lprM)): 37.39 CPM and 24.44 CPM | log2 Fold change (gene MT2022 (Rv1970 lprM)): −2.347 | Counts per million (CPM) WT_HC101A (gene MT2023 (Rv1971)): 53.54 CPM and 31.19 CPM | log2 Fold change (gene MT2023 (Rv1971)): −2.293 | Counts per million (CPM) WT_HC101A (gene MT2024 (Rv1972)): 16.15 CPM and 10.41 CPM | log2 Fold change (gene MT2024 (Rv1972)): −1.124 | Counts per million (CPM) WT_HC101A (gene MT2042.1): 19.87 CPM and 29.96 CPM | log2 Fold change (gene MT2042.1): −1.522 | Counts per million (CPM) WT_HC101A (gene MT2050 (Rv2004c)): 234 CPM and 227.9 CPM | log2 Fold change (gene MT2050 (Rv2004c)): −3.602 | Counts per million (CPM) WT_HC101A (gene MT2051 (Rv2005c)): 149.3 CPM and 179.3 CPM | log2 Fold change (gene MT2051 (Rv2005c)): −3.859 | Counts per million (CPM) WT_HC101A (gene MT2052 (Rv1996)): 177.9 CPM and 195.4 CPM | log2 Fold change (gene MT2052 (Rv1996)): −7.087 | Counts per million (CPM) WT_HC101A (gene MT2052 (Rv2006 otsB)): 122.8 CPM and 137.5 CPM | log2 Fold change (gene MT2052 (Rv2006 otsB)): −2.478 | Counts per million (CPM) WT_HC101A (gene MT2053 (Rv1997 ctpF)): 70.21 CPM and 92.04 CPM | log2 Fold change (gene MT2053 (Rv1997 ctpF)): 4.931 | log2 Fold change (gene MT2053 (Rv2007c fdxA)): −3.149 | Counts per million (CPM) WT_HC101A (gene MT2059 (Rv2003c)): 101.8 CPM and 119.9 CPM | log2 Fold change (gene MT2059 (Rv2003c)): −2.726 | Counts per million (CPM) WT_HC101A (gene MT2079 (Rv2023c)): 11.24 CPM and 12.86 CPM | log2 Fold change (gene MT2079 (Rv2023c)): −1.5 | Counts per million (CPM) WT_HC101A (gene MT2080): 28.31 CPM and 33.92 CPM | log2 Fold change (gene MT2080): −1.521 | Counts per million (CPM) WT_HC101A (gene MT2086 (Rv2027c)): 56.35 CPM and 58.94 CPM | log2 Fold change (gene MT2086 (Rv2027c)): −2.22 | log2 Fold change (gene MT2087 Rv2028c): −3.553 | Counts per million (CPM) WT_HC101A (gene MT2088): 91.91 CPM and 170.4 CPM | log2 Fold change (gene MT2088): −4.873 | log2 Fold change (gene MT2089 Rv2030c): −4.16 | log2 Fold change (gene MT2090): −5.249 | log2 Fold change (gene MT2091 Rv2032): −4.893 | Counts per million (CPM) WT_HC101A (gene MT2156 (Rv2107 PE)): 20.07 CPM and 13.38 CPM | log2 Fold change (gene MT2156 (Rv2107 PE)): −1.59 | Counts per million (CPM) WT_HC101A (gene MT2278 (Rv2220 glnAl)): 436.2 CPM and 385.9 CPM | log2 Fold change (gene MT2278 (Rv2220 glnAl)): −1.475 | Counts per million (CPM) WT_HC101A (gene MT2304 (Rv2244 acpM)): 626.7 CPM and 987.4 CPM | log2 Fold change (gene MT2304 (Rv2244 acpM)): −2.163 | log2 Fold change (gene MT2305 (Rv2245 kasA)): −1.728 | Counts per million (CPM) WT_HC101A (gene MT2306): 581.8 CPM and 834.9 CPM | log2 Fold change (gene MT2306): −1.559 | log2 Fold change (gene MT2307 (Rv2247 accD6)): −1.121 | Counts per million (CPM) WT_HC101A (gene MT2329 (Rv2267c)): 24.25 CPM and 27 CPM | log2 Fold change (gene MT2329 (Rv2267c)): −1.234
